From patent US8217060B2, “Benzimidazole derivatives useful as TRP M8 receptor modulators” (Janssen Pharmaceutica, NV, priority 2009, dated 2012)
Counter-ions that a name gives are not always drawn.

Target: T1, canine TRPM8 (Canis lupus familiaris, UniProt Q1A7N1)
T1 construct: expressed in transfected cells
Assay: In Vitro Canine TRPM8 Functional Assay (icilin-induced intracellular Ca2+ fluorescence, FLIPR/FDSS)
Format: cell-based
Settings: HEK293 cells stably expressing canine TRPM8; for inhibition at 0.2 µM: 0.2 μM test compound, icilin challenge; for IC50: icilin challenge (~80% maximal response), eight-point dose-response
Description: The functional activity of representative compounds of the formula (I) of the present invention were measured by measuring changes in intracellular calcium concentration using a Ca^2+-sensitive fluorescent dye. The changes in fluorescent signal were monitored by a fluorescence plate reader, either a FLIPR™ (Molecular Devices) or FDSS (Hamamatsu).
HEK293 cells stably expressing canine TRPM8 were routinely grown as monolayers in Dulbecco's minimum essential medium supplemented with 10% FBS, 2 mM L-glutamine, 100 units/mL penicillin, 100 ug/mL streptomycin and 400 μg/mL G418. Cells were maintained in 5% CO2 at 37° C. At 24 hrs prior to assay, cells were seeded in black wall, clear-base poly-D-lysine coated 384-well plates (BD Biosciences, NJ, USA) at a density of 5,000 cells per well in culture medium and grown overnight in 5% CO2 at 37° C. On assay day, growth media was removed and cells were loaded with Calcium 3 Dye (Molecular Devices) for 35 min at 37° C., under 5% CO2 and then for 25 min at room temperature and atmosphere. Subsequently, cells were tested for agonist-induced increases in intracellular Ca^2+ levels using FLIPR™ or FDSS. Cells were challenged with compounds of the formula (I) (at varying concentrations) and intracellular Ca^2+ was measured for 5 min prior to the addition of icilin to all wells to achieve a final concentration that produces approximately an 80% maximal response.
Basal FI was subtracted prior to normalizing data to percent of maximal response. Curves were generated using the average of quadruplicate wells for each data point, were analyzed using nonlinear regression of either sigmoidal dose response or sigmoidal dose response (variable slope). Finally, the EC50 and IC50 values were calculated with the best-fit dose curve determined by GraphPad Prism

T1 sequence (Q1A7N1 1-1104): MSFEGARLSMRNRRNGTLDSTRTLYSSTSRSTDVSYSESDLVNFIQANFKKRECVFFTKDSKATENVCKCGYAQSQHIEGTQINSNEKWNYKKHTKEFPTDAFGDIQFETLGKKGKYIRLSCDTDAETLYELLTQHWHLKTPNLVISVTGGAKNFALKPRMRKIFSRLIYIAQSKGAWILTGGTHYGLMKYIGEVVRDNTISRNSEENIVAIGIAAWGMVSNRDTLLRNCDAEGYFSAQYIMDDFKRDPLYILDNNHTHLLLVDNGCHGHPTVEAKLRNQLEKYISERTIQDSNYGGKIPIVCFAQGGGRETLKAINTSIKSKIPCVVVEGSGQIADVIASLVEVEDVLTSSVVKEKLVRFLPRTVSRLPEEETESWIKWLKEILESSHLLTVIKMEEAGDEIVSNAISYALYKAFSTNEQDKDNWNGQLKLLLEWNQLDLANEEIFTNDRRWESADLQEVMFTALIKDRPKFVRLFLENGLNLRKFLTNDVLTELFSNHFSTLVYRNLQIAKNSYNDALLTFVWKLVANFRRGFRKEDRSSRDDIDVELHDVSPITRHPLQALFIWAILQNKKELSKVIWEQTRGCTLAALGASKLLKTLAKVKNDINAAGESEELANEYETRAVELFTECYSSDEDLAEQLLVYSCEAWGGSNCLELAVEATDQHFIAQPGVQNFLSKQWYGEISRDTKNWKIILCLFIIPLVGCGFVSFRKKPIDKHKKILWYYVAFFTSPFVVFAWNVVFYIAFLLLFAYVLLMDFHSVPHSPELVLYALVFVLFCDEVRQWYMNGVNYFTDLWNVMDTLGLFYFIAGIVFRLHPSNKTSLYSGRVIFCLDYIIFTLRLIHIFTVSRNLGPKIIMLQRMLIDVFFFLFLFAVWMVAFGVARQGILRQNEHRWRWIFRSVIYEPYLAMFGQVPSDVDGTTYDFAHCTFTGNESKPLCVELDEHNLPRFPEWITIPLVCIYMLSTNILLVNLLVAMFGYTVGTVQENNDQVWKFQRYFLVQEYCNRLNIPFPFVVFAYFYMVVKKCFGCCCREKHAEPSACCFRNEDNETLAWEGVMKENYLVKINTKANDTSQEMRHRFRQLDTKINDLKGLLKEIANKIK

| Structure (SMILES) | inhibition at 0.2 µM | IC50 |
| --- | --- | --- |
| C(=CC1CCCCC1)c1nc2cc(-c3ccccc3)ccc2[nH]1 [Compound 2, 2-(2-Cyclohexyl-vinyl)-5-phenyl-1H-benzimidazole] | 96% | 110 nM |
| FC(F)(F)COc1ccccc1-c1ccc2[nH]c(C=CC3CCCCC3)nc2c1 [Compound 4, 2-(2-Cyclohexyl-vinyl)-5-[2-(2,2,2-trifluoro-ethoxy)-phenyl]-1H-benzimidazole] | 103% | 3 nM |
| OCc1ccccc1-c1ccc2[nH]c(/C=C/C3CCCCC3)nc2c1 [Compound 6] | 103% | 12 nM |
| CC1(c2ccccc2-c2ccc3[nH]c(C=CC4CCCCC4)nc3c2)OCCO1 [Compound 7, 2-(2-Cyclohexyl-vinyl)-5-[2-(2-methyl-[1,3]dioxolan-2-yl)-phenyl]-1H-benzimidazole] | 103% | 34 nM |
| CC(=O)c1ccccc1-c1ccc2[nH]c(C=CC3CCCCC3)nc2c1 [Compound 8, 1-{2-[2-(2-Cyclohexyl-vinyl)-1H-benzimidazol-5-yl]-phenyl}-ethanone] | 97% | 41 nM |
| COc1cccc(OC)c1-c1ccc2[nH]c(C=CC3CCCCC3)nc2c1 [Compound 14, 2-(2-Cyclohexyl-vinyl)-5-(2,6-dimethoxy-phenyl)-1H-benzimidazole] | 95% | 2 nM |
| Cc1ccsc1-c1ccc2[nH]c(C=CC3CCCCC3)nc2c1 [Compound 17, 2-(2-Cyclohexyl-vinyl)-5-(3-methyl-thiophen-2-yl)-1H-benzimidazole] | 102% | 17 nM |
| Cc1ccsc1-c1ccc2[nH]c(C=CC3CCCC3)nc2c1 [Compound 25, 2-(2-Cyclopentyl-vinyl)-5-(3-methyl-thiophen-2-yl)-1H-benzimidazole] | 102% | 13 nM |
| FC(F)(F)Oc1ccccc1-c1ccc2nc(C=CC3CCCC3)[nH]c2c1 [Compound 26, 2-(2-Cyclopentyl-vinyl)-5-(2-trifluoromethoxy-phenyl)-1H-benzimidazole] | 100% | 33 nM |
| N#Cc1ccccc1-c1ccc2[nH]c(C=CC3CCCC3)nc2c1 [Compound 27, 2-[2-(2-Cyclopentyl-vinyl)-1H-benzimidazol-5-yl]-benzonitrile] | 100% | 47 nM |
| OCc1ccccc1-c1ccc2[nH]c(C=CC3CCCC3)nc2c1 [Compound 28, {2-[2-(2-Cyclopentyl-vinyl)-1H-benzimidazol-5-yl]-phenyl}-methanol] | 95% | 42 nM |
| CC(=O)c1ccccc1-c1ccc2[nH]c(C=CC3CCCC3)nc2c1 [Compound 29, 1-{2-[2-(2-Cyclopentyl-vinyl)-1H-benzimidazol-5-yl]-phenyl}-ethanone] | 77% | 170 nM |
| FC1=CCC(C=Cc2nc3cc(-c4ccccc4C(F)(F)F)ccc3[nH]2)CC1 (stereo not drawn) [Compound 31, 2-[2-(4-Fluoro-cyclohex-3-enyl)-vinyl]-5-(2-trifluoromethyl-phenyl)-1H-benzimidazole] | 102% | 6 nM |
| FC1=CCC(C=Cc2nc3cc(-c4ccccc4OC(F)(F)F)ccc3[nH]2)CC1 (stereo not drawn) [Compound 32, 2-[2-(4-Fluoro-cyclohex-3-enyl)-vinyl]-5-(2-trifluoromethoxy-phenyl)-1H-benzoimidazole hydrochloride salt] | 101% | 5.2 nM |
| COc1ccc(F)cc1-c1ccc2[nH]c(C=CC3CC=C(F)CC3)nc2c1 (stereo not drawn) [Compound 33, 2-[2-(4-Fluoro-cyclohex-3-enyl)-vinyl]-5-(5-fluoro-2-methoxy-phenyl)-1H-benzoimidazole hydrochloride salt] | 101% | 9 nM |
| FC1=CCC(C=Cc2nc3cc(-c4ccccc4Cl)ccc3[nH]2)CC1 (stereo not drawn) [Compound 34, 5-(2-Chloro-phenyl)-2-[2-(4-fluoro-cyclohex-3-enyl)-vinyl]-1H-benzoimidazole hydrochloride salt] | 101% | 5 nM |
| Cc1cccc(C)c1-c1ccc2[nH]c(C=CC3CC=C(F)CC3)nc2c1 (stereo not drawn) [Compound 35, 5-(2,6-Dimethyl-phenyl)-2-[2-(4-fluoro-cyclohex-3-enyl)-vinyl]-1H-benzoimidazole hydrochloride salt] | 100% | 4 nM |
| FC1=CCC(C=Cc2nc3cc(-c4ccccc4F)ccc3[nH]2)CC1 (stereo not drawn) [Compound 36, 2-[2-(4-Fluoro-cyclohex-3-enyl)-vinyl]-5-(2-fluoro-phenyl)-1H-benzoimidazole hydrochloride salt] | 100% | 16 nM |
| FC1(F)CCC(C=Cc2nc3cc(-c4ccccc4OC(F)(F)F)ccc3[nH]2)CC1 [Compound 37, 2-[2-(4,4-Difluoro-cyclohexyl)-vinyl]-5-(2-trifluoromethoxy-phenyl)-1H-benzoimidazole hydrochloride salt] | 100% | 8 nM |
| FC1(F)CCC(C=Cc2nc3cc(-c4ccccc4Cl)ccc3[nH]2)CC1 [Compound 38, 5-(2-Chloro-phenyl)-2-[2-(4,4-difluoro-cyclohexyl)-vinyl]-1H-benzoimidazole hydrochloride salt] | 101% | 3.5 nM |
| Fc1ccccc1-c1ccc2[nH]c(C=CC3CCC(F)(F)CC3)nc2c1 [Compound 39, 2-[2-(4,4-Difluoro-cyclohexyl)-vinyl]-5-(2-fluoro-phenyl)-1H-benzoimidazole hydrochloride salt] | 101% | 9 nM |
| COc1cccc(OC)c1-c1ccc2[nH]c(C=CC3CC=C(F)CC3)nc2c1 (stereo not drawn) [Compound 40, 5-(2,6-Dimethoxy-phenyl)-2-[2-(4-fluoro-cyclohex-3-enyl)-vinyl]-1H-benzoimidazole hydrochloride salt] | 101% | 2 nM |

Continued, values first:

| inhibition at 0.2 µM | IC50 | Structure (SMILES) |
| --- | --- | --- |
| 103% | 7 nM | Cc1ccccc1-c1ccc2[nH]c(C=CC3CCCCC3)nc2c1 [Compound 3, 2-(2-Cyclohexyl-vinyl)-5-o-tolyl-1H-benzimidazole] |
| 18% |  | Oc1cccc(-c2ccc3[nH]c(C=CC4CCCCC4)nc3c2)c1 [Compound 5, 3-[2-(2-Cyclohexyl-vinyl)-1H-benzimidazol-5-yl]-phenol] |
| 101% | 11 nM | Fc1ccc(Cl)c(-c2ccc3[nH]c(C=CC4CCCCC4)nc3c2)c1 [Compound 9, 5-(2-Chloro-5-fluoro-phenyl)-2-(2-cyclohexyl-vinyl)-1H-benzimidazole] |
| 101% | 6 nM | Fc1cccc(Cl)c1-c1ccc2[nH]c(C=CC3CCCCC3)nc2c1 [Compound 10, 5-(2-Chloro-6-fluoro-phenyl)-2-(2-cyclohexyl-vinyl)-1H-benzimidazole] |
| 102% | 32 nM | COc1cccc(F)c1-c1ccc2[nH]c(C=CC3CCCCC3)nc2c1 [Compound 11, 2-(2-Cyclohexyl-vinyl)-5-(2-fluoro-6-methoxy-phenyl)-1H-benzimidazole] |
| 92% | 39 nM | COc1cc(F)ccc1-c1ccc2[nH]c(C=CC3CCCCC3)nc2c1 [Compound 12, 2-(2-Cyclohexyl-vinyl)-5-(4-fluoro-2-methoxy-phenyl)-1H-benzimidazole] |
| 102% | 28 nM | Fc1cccc(F)c1-c1ccc2[nH]c(C=CC3CCCCC3)nc2c1 [Compound 15, 2-(2-Cyclohexyl-vinyl)-5-(2,6-difluoro-phenyl)-1H-benzimidazole] |
| 102% | 14 nM | Fc1ccccc1-c1ccc2[nH]c(C=CC3CCCCC3)nc2c1 [Compound 16, 2-(2-Cyclohexyl-vinyl)-5-(2-fluoro-phenyl)-1H-benzimidazole] |
| 101% | 32 nM | COc1ccc(Cl)c(-c2ccc3[nH]c(C=CC4CCCCC4)nc3c2)c1 [Compound 18, 5-(2-Chloro-5-methoxy-phenyl)-2-(2-cyclohexyl-vinyl)-1H-benzimidazole] |
| 86% | 34 nM | Clc1ccc(Cl)c(-c2ccc3[nH]c(C=CC4CCCCC4)nc3c2)c1 [Compound 19, 2-(2-Cyclohexyl-vinyl)-5-(2,5-dichloro-phenyl)-1H-benzimidazole] |
| 85% | 53 nM | COc1ccc(Cl)cc1-c1ccc2[nH]c(C=CC3CCCCC3)nc2c1 [Compound 20, 5-(5-Chloro-2-methoxy-phenyl)-2-(2-cyclohexyl-vinyl)-1H-benzimidazole] |
| 101% | 31 nM | Fc1ccc(F)c(-c2ccc3[nH]c(C=CC4CCCCC4)nc3c2)c1 [Compound 22, 2-(2-Cyclohexyl-vinyl)-5-(2,5-difluoro-phenyl)-1H-benzimidazole] |
| 85% | 97 nM | Fc1ccccc1-c1ccc2[nH]c(C=CC3CCCC3)nc2c1 [Compound 24, 2-(2-Cyclopentyl-vinyl)-5-(2-fluoro-phenyl)-1H-benzimidazole] |
